Data published in patent US20090196885A1, “Cancer Treatment” (National Health Research Institutes, priority 2005, published 2009).

Test system: Hep G2 hepatoma cells
Test: In vitro cancer cell proliferation assay (sulforhodamine B), Hep G2
Assay type: cell-based
Settings: Homo sapiens, HepG2, 144 h; lovastatin 2 μM alone; incubation for 6 days; read-out: inhibited growth of Hep G2 cells
Description: Hep G2 hepatoma cells were seeded in a 96-well culture plate (2000 cells/well) and cultured overnight in 100 μl of complete DMEM.

For `CC[C@H](C)C(=O)O[C@H]1C[C@@H](C)C=C2C=C[C@H](C)[C@H](CC[C@@H]3C[C@@H](O)CC(=O)O3)[C@H]21` [lovastatin], the inhibition at 2 µM was 11.5%.
